In ChEMBL document CHEMBL4706488, “Design, synthesis and biological evaluation of 2-amino-4-(1,2,4-triazol)pyridine derivatives as potent EGFR inhibitors to overcome TKI-resistance” (Eur J Med Chem, 2020) one finds IC50 data, which are given here for 15 molecules.

As a reminder, the IC50 is the concentration that gives 50% inhibition. Lower therefore signals inhibition by little substance.

For the first assay, the target named is Epidermal growth factor receptor (Homo sapiens, UniProt P00533). The assay is described as follows: biochemical. It counts as cell-based, Sf21.
Chain of Epidermal growth factor receptor (Homo sapiens, UniProt P00533) (P00533 whole entry): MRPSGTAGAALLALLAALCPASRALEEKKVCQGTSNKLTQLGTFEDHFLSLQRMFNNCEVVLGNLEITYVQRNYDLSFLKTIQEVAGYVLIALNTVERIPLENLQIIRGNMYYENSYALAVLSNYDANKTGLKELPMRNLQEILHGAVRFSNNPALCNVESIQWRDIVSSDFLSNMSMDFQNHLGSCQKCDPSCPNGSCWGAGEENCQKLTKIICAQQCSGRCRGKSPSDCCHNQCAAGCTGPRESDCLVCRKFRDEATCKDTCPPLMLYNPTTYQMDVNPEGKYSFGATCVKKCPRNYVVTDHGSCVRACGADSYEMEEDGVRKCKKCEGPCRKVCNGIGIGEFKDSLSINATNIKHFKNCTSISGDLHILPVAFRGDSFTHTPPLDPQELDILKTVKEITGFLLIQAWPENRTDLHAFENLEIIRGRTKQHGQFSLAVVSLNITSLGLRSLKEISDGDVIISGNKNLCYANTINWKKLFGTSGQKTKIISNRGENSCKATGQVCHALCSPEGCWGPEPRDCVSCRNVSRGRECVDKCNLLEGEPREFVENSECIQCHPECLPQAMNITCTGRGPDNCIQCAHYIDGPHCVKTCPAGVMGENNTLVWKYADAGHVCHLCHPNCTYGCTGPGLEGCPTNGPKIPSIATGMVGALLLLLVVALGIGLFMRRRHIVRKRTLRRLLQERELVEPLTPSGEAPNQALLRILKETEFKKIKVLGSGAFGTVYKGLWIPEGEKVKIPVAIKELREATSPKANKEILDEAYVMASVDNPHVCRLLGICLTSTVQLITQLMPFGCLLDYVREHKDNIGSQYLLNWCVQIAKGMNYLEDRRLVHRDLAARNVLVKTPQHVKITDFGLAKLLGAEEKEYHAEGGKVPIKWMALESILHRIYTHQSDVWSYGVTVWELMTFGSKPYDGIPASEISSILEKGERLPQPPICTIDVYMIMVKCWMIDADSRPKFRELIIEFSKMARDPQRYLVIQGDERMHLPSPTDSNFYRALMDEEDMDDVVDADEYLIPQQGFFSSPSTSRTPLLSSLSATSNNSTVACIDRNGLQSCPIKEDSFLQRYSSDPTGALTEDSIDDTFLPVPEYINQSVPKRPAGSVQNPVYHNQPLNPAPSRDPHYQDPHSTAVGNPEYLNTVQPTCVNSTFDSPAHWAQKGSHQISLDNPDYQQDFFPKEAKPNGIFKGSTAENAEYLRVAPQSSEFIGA
Settings: not given
For the molecule `C=CC(=O)Nc1cccc(Nc2cc(-n3c(CCCO)nnc3-c3ccc(F)cc3)ccn2)c1`, it took 0.196 µM to reach half-maximal inhibition (IC50).
The same measure, in the same setting: to `C=CC(=O)Nc1ccc(OC)c(Nc2cc(-n3c(SC)nnc3-c3ccc(F)cc3)ccn2)c1` belongs 0.179 µM; to `C=CC(=O)Nc1cc(Nc2cc(-n3c(SC)nnc3-c3ccc(F)cc3)ccn2)c(OC)cc1N1CCCN(C)CC1`, 0.333 µM.

The target of the next assay is Epidermal growth factor receptor (Homo sapiens, UniProt P00533, L858R/T790M). Put plainly: biochemical.
Chain of Epidermal growth factor receptor (Homo sapiens, UniProt P00533, L858R/T790M) (P00533 25-1210 T790M/L858R limits assumed): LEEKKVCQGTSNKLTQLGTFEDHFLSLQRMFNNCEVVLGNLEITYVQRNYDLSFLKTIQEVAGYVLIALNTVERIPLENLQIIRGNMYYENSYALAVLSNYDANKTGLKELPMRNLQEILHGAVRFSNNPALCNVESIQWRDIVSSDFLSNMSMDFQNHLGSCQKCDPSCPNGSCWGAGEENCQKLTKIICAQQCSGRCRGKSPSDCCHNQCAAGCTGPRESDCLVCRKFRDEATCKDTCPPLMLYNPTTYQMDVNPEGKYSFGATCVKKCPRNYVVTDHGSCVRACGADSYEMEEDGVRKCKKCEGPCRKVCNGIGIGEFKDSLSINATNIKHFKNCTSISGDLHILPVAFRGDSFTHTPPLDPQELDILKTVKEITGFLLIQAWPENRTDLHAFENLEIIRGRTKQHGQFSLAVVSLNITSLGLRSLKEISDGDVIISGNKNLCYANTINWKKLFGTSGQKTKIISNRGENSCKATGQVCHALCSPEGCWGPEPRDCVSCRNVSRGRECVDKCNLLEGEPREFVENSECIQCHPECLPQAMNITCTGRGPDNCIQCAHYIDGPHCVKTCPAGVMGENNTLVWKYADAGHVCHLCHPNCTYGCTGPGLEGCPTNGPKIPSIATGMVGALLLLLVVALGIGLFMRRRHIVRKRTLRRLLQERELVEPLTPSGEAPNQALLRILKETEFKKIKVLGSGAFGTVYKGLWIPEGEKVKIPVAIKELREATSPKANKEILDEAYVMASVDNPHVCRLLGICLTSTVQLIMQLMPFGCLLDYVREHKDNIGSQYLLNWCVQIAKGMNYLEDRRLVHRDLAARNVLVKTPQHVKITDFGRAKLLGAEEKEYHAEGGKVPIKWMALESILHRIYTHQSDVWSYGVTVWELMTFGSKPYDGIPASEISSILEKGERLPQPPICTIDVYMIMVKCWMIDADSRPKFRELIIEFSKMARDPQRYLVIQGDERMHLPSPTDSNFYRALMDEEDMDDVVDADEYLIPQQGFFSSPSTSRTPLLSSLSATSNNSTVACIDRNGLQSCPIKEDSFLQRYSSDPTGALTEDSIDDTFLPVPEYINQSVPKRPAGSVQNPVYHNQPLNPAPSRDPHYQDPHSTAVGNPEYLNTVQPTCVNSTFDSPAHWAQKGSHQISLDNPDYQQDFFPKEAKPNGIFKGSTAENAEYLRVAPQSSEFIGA
Settings: not given
It counts as cell-based, Sf21.
As to `C=CC(=O)Nc1cccc(Nc2cc(-n3c(CCCO)nnc3-c3ccc(F)cc3)ccn2)c1`, inhibition was half-maximal at 0.143 µM (IC50).
Same read-out and setting: then `C=CC(=O)Nc1ccc(OC)c(Nc2cc(-n3c(SC)nnc3-c3ccc(F)cc3)ccn2)c1`, with 0.147 µM.
The same measure, in the same setting: then `C=CC(=O)Nc1cc(Nc2cc(-n3c(SC)nnc3-c3ccc(F)cc3)ccn2)c(OC)cc1N1CCCN(C)CC1`, with 0.156 µM.
The same measure, in the same setting: then `C=CC(=O)Nc1cc(Nc2cc(-n3c(SC)nnc3-c3ccc(F)cc3)ccn2)c(OC)cc1N1CCC(N2CCOCC2)CC1`, with 0.112 µM; and `C=CC(=O)Nc1cccc(Nc2cc(-n3c(SC)nnc3-c3ccc(F)cc3)ccn2)c1`, with 0.234 µM.

In the next assay the test system is A-431. Put plainly: cells. It counts as functional, cell-based. To be noted: Homo sapiens.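 Also: antiproliferative test in A-431 cells carrying wild-type EGFR, with cell growth inhibition read by MTT assay.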
Description: Antiproliferative activity against human A-431 cells harboring wild type EGFR assessed as inhibition of cell growth by MTT assay
`COc1cc(N(C)CCN(C)C)ccc1Nc1cc(-n2c(SC)nnc2-c2ccc(F)cc2)ccn1` registered an IC50 of over 100 µM.
Still for that read-out and setting: to `C=CC(=O)Nc1cccc(Nc2cc(-n3c(C)nnc3-c3ccc(F)cc3)ccn2)c1` belongs 12.2 µM.
Still for that read-out and setting: then `C=CC(=O)Nc1cccc(Nc2cc(-n3c(CCCO)nnc3-c3ccc(F)cc3)ccn2)c1`, with 65.9 µM; and `C=CC(=O)Nc1cc(Nc2nccc(-c3cn(C)c4ccccc34)n2)c(OC)cc1N(C)CCN(C)C` [OSIMERTINIB], with […]; and `C=CC(=O)Nc1ccc(OC)c(Nc2cc(-n3c(SC)nnc3-c3ccc(F)cc3)ccn2)c1`, with 3.4 µM.
The same measure, in the same setting: to `C=CC(=O)Nc1ccc(OC)c(Nc2cc(-n3c(CCCO)nnc3-c3ccc(F)cc3)ccn2)c1` belongs 88.6 µM; to `C=CC(=O)Nc1cc(Nc2cc(-n3c(SC)nnc3-c3ccc(F)cc3)ccn2)c(OC)cc1N1CCN(C2CCN(C)CC2)CC1`, 9.9 µM; to `C=CC(=O)Nc1cc(Nc2cc(-n3c(SC)nnc3-c3ccc(F)cc3)ccn2)c(OC)cc1N1CCCN(C)CC1`, 10.3 µM.
Take `C=CC(=O)Nc1cc(Nc2cc(-n3c(SC)nnc3-c3ccc(F)cc3)ccn2)c(OC)cc1N1CCN(C)CC1`: 14.3 µM corresponded to half-maximal inhibition (IC50).
As for `C=CC(=O)Nc1cc(Nc2cc(-n3c(SC)nnc3-c3ccc(F)cc3)ccn2)c(OC)cc1N1CCC(N2CCOCC2)CC1`, the IC50 was found to be 7 µM.
Still for that read-out and setting: then `C=CC(=O)Nc1cc(Nc2cc(-n3c(SC)nnc3-c3ccc(F)cc3)ccn2)c(OC)cc1N1CCC(N2CCN(C)CC2)CC1`, with 9.3 µM.
Still for that read-out and setting: then `C=CC(=O)Nc1cccc(Nc2cc(-n3c(SC)nnc3-c3ccc(F)cc3)ccn2)c1`, with 6.9 µM; and `C=CC(=O)Nc1ccc(OC)c(Nc2cc(-n3c(C)nnc3-c3ccc(F)cc3)ccn2)c1`, with 52.6 µM.
Same read-out and setting: to `C=CC(=O)Nc1cc(Nc2cc(-n3c(SC)nnc3-c3ccc(F)cc3)ccn2)c(OC)cc1N1CCC(N(C)C)CC1` belongs 11.4 µM; to `CCC(=O)Nc1cc(Nc2cc(-n3c(SC)nnc3-c3ccc(F)cc3)ccn2)c(OC)cc1N(C)CCN(C)C`, 73.9 µM.

For a further assay, the system named is NCI-H1975. The assay is described as follows: cells. It counts as functional, cell-based. The conditions noted are these: Homo sapiens.
For `COc1cc(N(C)CCN(C)C)ccc1Nc1cc(-n2c(SC)nnc2-c2ccc(F)cc2)ccn1`, the midpoint of inhibition, the IC50, lay at 41.9 µM. In other words, the double-digit micromolar range.
Still for that read-out and setting: to `C=CC(=O)Nc1cccc(Nc2cc(-n3c(C)nnc3-c3ccc(F)cc3)ccn2)c1` belongs 21.4 µM; to `C=CC(=O)Nc1cccc(Nc2cc(-n3c(CCCO)nnc3-c3ccc(F)cc3)ccn2)c1`, over 100 µM; to `C=CC(=O)Nc1cc(Nc2nccc(-c3cn(C)c4ccccc34)n2)c(OC)cc1N(C)CCN(C)C` [OSIMERTINIB], […].
`C=CC(=O)Nc1ccc(OC)c(Nc2cc(-n3c(SC)nnc3-c3ccc(F)cc3)ccn2)c1` came in with a 50% inhibitory concentration (IC50) of 7.8 µM.
Regarding `C=CC(=O)Nc1ccc(OC)c(Nc2cc(-n3c(CCCO)nnc3-c3ccc(F)cc3)ccn2)c1`, the concentration for half-maximal inhibition (IC50) is over 100 µM.
On to `C=CC(=O)Nc1cc(Nc2cc(-n3c(SC)nnc3-c3ccc(F)cc3)ccn2)c(OC)cc1N1CCN(C2CCN(C)CC2)CC1`, for which the IC50 stood at 14.9 µM. That is a double-digit micromolar value.
The same measure, in the same setting: then `C=CC(=O)Nc1cc(Nc2cc(-n3c(SC)nnc3-c3ccc(F)cc3)ccn2)c(OC)cc1N1CCCN(C)CC1`, with 8.1 µM.
The same measure, in the same setting: to `C=CC(=O)Nc1cc(Nc2cc(-n3c(SC)nnc3-c3ccc(F)cc3)ccn2)c(OC)cc1N1CCN(C)CC1` belongs over 100 µM; to `C=CC(=O)Nc1cc(Nc2cc(-n3c(SC)nnc3-c3ccc(F)cc3)ccn2)c(OC)cc1N1CCC(N2CCOCC2)CC1`, 16.7 µM; to `C=CC(=O)Nc1cc(Nc2cc(-n3c(SC)nnc3-c3ccc(F)cc3)ccn2)c(OC)cc1N1CCC(N2CCN(C)CC2)CC1`, 4.5 µM.
On the same count and under the same terms, then `C=CC(=O)Nc1cccc(Nc2cc(-n3c(SC)nnc3-c3ccc(F)cc3)ccn2)c1`, with 10.7 µM.
Turning to `C=CC(=O)Nc1ccc(OC)c(Nc2cc(-n3c(C)nnc3-c3ccc(F)cc3)ccn2)c1`, half-maximal inhibition (IC50) required 53.5 µM. Compared with the last molecule, the IC50 is about 5-fold higher.
`C=CC(=O)Nc1cc(Nc2cc(-n3c(SC)nnc3-c3ccc(F)cc3)ccn2)c(OC)cc1N1CCC(N(C)C)CC1` had an IC50 of 13.2 µM.
Regarding `CCC(=O)Nc1cc(Nc2cc(-n3c(SC)nnc3-c3ccc(F)cc3)ccn2)c(OC)cc1N(C)CCN(C)C`, the IC50 was over 100 µM.

A further assay relates to U-87 MG. Put plainly: cells. It counts as functional, cell-based, U-87MG ATCC. The conditions noted are these: Homo sapiens.
Description: Antiproliferative activity against human U-87MG cells harboring wild type EGFR assessed as inhibition of cell growth by MTT assay
Regarding `COc1cc(N(C)CCN(C)C)ccc1Nc1cc(-n2c(SC)nnc2-c2ccc(F)cc2)ccn1`, it took 19.2 µM to reach half-maximal inhibition (IC50). That is a double-digit micromolar value.
As for `C=CC(=O)Nc1cccc(Nc2cc(-n3c(C)nnc3-c3ccc(F)cc3)ccn2)c1`, the half-inhibitory concentration (IC50) was 51.6 µM.
Molecule `C=CC(=O)Nc1cccc(Nc2cc(-n3c(CCCO)nnc3-c3ccc(F)cc3)ccn2)c1` returned an IC50 of 21.7 µM. This IC50 lies about 2.4-fold lower than the previous one.
In the case of `C=CC(=O)Nc1cc(Nc2nccc(-c3cn(C)c4ccccc34)n2)c(OC)cc1N(C)CCN(C)C` [OSIMERTINIB], the half-inhibitory concentration (IC50) stood at 4.5 µM. Against the preceding molecule, the IC50 is about 4.8-fold lower.
On the same count and under the same terms, to `C=CC(=O)Nc1ccc(OC)c(Nc2cc(-n3c(SC)nnc3-c3ccc(F)cc3)ccn2)c1` belongs 4.5 µM.
On the same count and under the same terms, then `C=CC(=O)Nc1ccc(OC)c(Nc2cc(-n3c(CCCO)nnc3-c3ccc(F)cc3)ccn2)c1`, with over 100 µM.
On the same count and under the same terms, then `C=CC(=O)Nc1cc(Nc2cc(-n3c(SC)nnc3-c3ccc(F)cc3)ccn2)c(OC)cc1N1CCN(C2CCN(C)CC2)CC1`, with 6.49 µM; and `C=CC(=O)Nc1cc(Nc2cc(-n3c(SC)nnc3-c3ccc(F)cc3)ccn2)c(OC)cc1N1CCCN(C)CC1`, with 6.97 µM.
As for `C=CC(=O)Nc1cc(Nc2cc(-n3c(SC)nnc3-c3ccc(F)cc3)ccn2)c(OC)cc1N1CCN(C)CC1`, the IC50 is 8.66 µM.
Take `C=CC(=O)Nc1cc(Nc2cc(-n3c(SC)nnc3-c3ccc(F)cc3)ccn2)c(OC)cc1N1CCC(N2CCOCC2)CC1`: half-maximal inhibition (IC50) was put at 15.2 µM.
Same read-out and setting: to `C=CC(=O)Nc1cc(Nc2cc(-n3c(SC)nnc3-c3ccc(F)cc3)ccn2)c(OC)cc1N1CCC(N2CCN(C)CC2)CC1` belongs 3.6 µM.
Still for that read-out and setting: then `C=CC(=O)Nc1cccc(Nc2cc(-n3c(SC)nnc3-c3ccc(F)cc3)ccn2)c1`, with 3.5 µM; and `C=CC(=O)Nc1ccc(OC)c(Nc2cc(-n3c(C)nnc3-c3ccc(F)cc3)ccn2)c1`, with 68.1 µM.
Same read-out and setting: to `C=CC(=O)Nc1cc(Nc2cc(-n3c(SC)nnc3-c3ccc(F)cc3)ccn2)c(OC)cc1N1CCC(N(C)C)CC1` belongs 8.42 µM; to `CCC(=O)Nc1cc(Nc2cc(-n3c(SC)nnc3-c3ccc(F)cc3)ccn2)c(OC)cc1N(C)CCN(C)C`, 53.1 µM.

Tested on in a further assay: not listed separately
The assay is described as follows: cells. It counts as functional, tissue-based. To be noted: Homo sapiens, U87MG Human EGFR vIII.
Description: Antiproliferative activity against human U87MG Human EGFR vIII cells overexpressing EGFRvIII mutant assessed as inhibition of cell growth by MTT assay
Molecule `COc1cc(N(C)CCN(C)C)ccc1Nc1cc(-n2c(SC)nnc2-c2ccc(F)cc2)ccn1` registered a half-maximal inhibitory concentration (IC50) of over 100 µM.
Still for that read-out and setting: then `C=CC(=O)Nc1cccc(Nc2cc(-n3c(C)nnc3-c3ccc(F)cc3)ccn2)c1`, with 37.8 µM; and `C=CC(=O)Nc1cccc(Nc2cc(-n3c(CCCO)nnc3-c3ccc(F)cc3)ccn2)c1`, with over 100 µM; and `C=CC(=O)Nc1cc(Nc2nccc(-c3cn(C)c4ccccc34)n2)c(OC)cc1N(C)CCN(C)C` [OSIMERTINIB], with 13.1 µM.
Same read-out and setting: then `C=CC(=O)Nc1ccc(OC)c(Nc2cc(-n3c(SC)nnc3-c3ccc(F)cc3)ccn2)c1`, with 26.3 µM; and `C=CC(=O)Nc1ccc(OC)c(Nc2cc(-n3c(CCCO)nnc3-c3ccc(F)cc3)ccn2)c1`, with over 100 µM; and `C=CC(=O)Nc1cc(Nc2cc(-n3c(SC)nnc3-c3ccc(F)cc3)ccn2)c(OC)cc1N1CCN(C2CCN(C)CC2)CC1`, with 25.5 µM.
The same measure, in the same setting: to `C=CC(=O)Nc1cc(Nc2cc(-n3c(SC)nnc3-c3ccc(F)cc3)ccn2)c(OC)cc1N1CCCN(C)CC1` belongs 43.6 µM.
`C=CC(=O)Nc1cc(Nc2cc(-n3c(SC)nnc3-c3ccc(F)cc3)ccn2)c(OC)cc1N1CCN(C)CC1` gave an IC50 of over 100 µM.
Still for that read-out and setting: to `C=CC(=O)Nc1cc(Nc2cc(-n3c(SC)nnc3-c3ccc(F)cc3)ccn2)c(OC)cc1N1CCC(N2CCOCC2)CC1` belongs 20.2 µM; to `C=CC(=O)Nc1cc(Nc2cc(-n3c(SC)nnc3-c3ccc(F)cc3)ccn2)c(OC)cc1N1CCC(N2CCN(C)CC2)CC1`, 25.6 µM.
Still for that read-out and setting: to `C=CC(=O)Nc1cccc(Nc2cc(-n3c(SC)nnc3-c3ccc(F)cc3)ccn2)c1` belongs 13 µM; to `C=CC(=O)Nc1ccc(OC)c(Nc2cc(-n3c(C)nnc3-c3ccc(F)cc3)ccn2)c1`, 35.7 µM.
Same read-out and setting: then `C=CC(=O)Nc1cc(Nc2cc(-n3c(SC)nnc3-c3ccc(F)cc3)ccn2)c(OC)cc1N1CCC(N(C)C)CC1`, with 39.7 µM.
`CCC(=O)Nc1cc(Nc2cc(-n3c(SC)nnc3-c3ccc(F)cc3)ccn2)c(OC)cc1N(C)CCN(C)C` displayed an IC50 of over 100 µM.
